Test results from US20160106837A1, “COMBINATION OF CD37 ANTIBODIES WITH CHLORAMBUCIL” (BOEHRINGER INGELHEIM INTERNATIONAL GMBH, priority 2013, published 2016).
Entries after “also recorded” stand apart in the source; their conditions may differ.

Legend:
[1] = tested on: human follicular lymphoma DOHH2; experiment: Subcutaneous xenograft model of the human follicular lymphoma DOHH2 in C.B-17 scid mice: tumor growth; format: in vivo
[2] = Body weight / tolerability in DOHH2 tumor-bearing C.B-17 scid mice

For `O=C(O)CCCc1ccc(N(CCCl)CCCl)cc1` [chlorambucil, 4-[Bis(2-chloroethy)amino]benzenebutaonic acid], the “CR (complete tumor regression)” value ([1]; day 16) was 0 x/7, the “PR (partial tumor regression)” value ([1]; day 16) was 0 x/7 and the “tumor regression (in words)” value ([1]; day 16) was “tumor regressions were not observed”. The TGI ([1]; median, day 16, A2 10 mg/kg i.p. d1,5,8,12,15, chlorambucil 6 mg/kg i.p. d2,6) was 71%, the “tumor growth inhibition (in words)” value ([1]; vs controls) was “moderate but significant inhibition of tumor growth; also recorded: moderate but significant efficacy” and the “body weight loss during first week” value ([2]; after one week / first 7 days of the study) was 13.4%. For the same molecule, the Weight change ([2]; median body weight change, day 16) was −5.4%.
